Molecular target: mitochondrial RNA-polymerase (POLRMT) (Mus musculus, UniProt Q8BKF1)
Assay: Homogeneous TR-FRET assay for mitochondrial transcription activity
Format: biochemical
Conditions: homogeneous TR-FRET assay according to Example 4; read-out: mitochondrial transcription activity (IC-50)
Source text: The TR-FRET assay was basically conducted as described in WO 2016/193231A1, especially as described in example 1 (hereby incorporated by reference). With respect to the background of the mitochondrial transcription it is referred to Falkenberg et al. (2002) and Posse et al. (Posse et al. 2015). The method monitors the activity of mitochondrial RNA-polymerase via detection of the formation of its product, a 407 bp long RNA sequence. Detection of the product is facilitated by hybridization of two DNA-oligonucleotide probes to specific and adjacent sequences within the RNA product sequence. Upon annealing of the probes, two fluorophores that are coupled directly to an acceptor nucleotide probe (ATT0647, 5′) or introduced via a coupled streptavidin interacting with a biotinylated donor nucleotide probe on the other side (Europium cryptate, 3) are brought into sufficient proximity to serve as a fluorescence-donor-acceptor pair as generally described in Walters and Namchuk (2003). Thus, a FRET signal at 665 nm is generated upon excitation at 340 nm.
Briefly, the protocol described here was applied for screening and activity determination in a low-volume 384-well microtiter plate with non-binding surface. For high-throughput application in the 1536-well microtiter plate format, volumes of the reagent mixes were adjusted, maintaining the volumetric ratio. Proteins POLRMT (NM_172551.3), TFAM (NM_009360.4) and TFB2M (NM_008249.4) were diluted from their stocks to working concentrations of 150 nM, 1.8 μM and 330 nM respectively, in a dilution buffer containing 100 mM Tris-HCl pH 8.0, 200 mM NaCl, 10% (v/v) glycerole, 2 mM glutathione (GSH), 0.5 mM EDTA and 0.1 mg/mL BSA. Protein dilutions and template DNA, comprising a pUC18 plasmid encoding the mitochondrial light strand promoter, restriction linearized proximal to the promoter 3′-end (pUC-LSP), were mixed at the twofold final assay-concentration in a reaction buffer, containing 10 mM Tris-HCl pH 7.5, 10 mM MgCl2, 40 mM NaCl, 2 mM GSH, 0.01% (w/v) Tween-20 and 0.1 mg/mL BSA.
5 μL of this mix were dispensed, depending on the chosen microtiter plate format, using multi-channel pipettes or a Multidrop® dispenser (Thermo Fisher Scientific, Waltham Mass.) into the wells of a microtiter plate and incubated at room temperature (RT) for 10 min. Chemical compounds under scrutiny in the assay were applied using contact-free acoustic droplet-dispensing (Echo520® Labcyte Inc., Sunnyvale Calif.) from 10 mM compound stocks in 100% DMSO, to a final concentration of 10 μM or in serial dilution series of the required concentration range. Equal amounts of DMSO without any compound were added to positive control samples, followed by an incubation step at RT for 10 min.
The enzymatic reaction was started by the addition of 5 μL of a mix of dNTPs in reaction buffer to a final concentration of 500 μM each. No nucleotide mix was added to negative control samples. The content of the wells was mixed using a VarioTeleshaker™ (Thermo Fisher Scientific, Waltham Mass.) at 1500 rpm for 45 sec after which the microtiter plate was centrifuged at 500×g for 1 min. The samples were incubated for 2 h at RT with humidity control to avoid evaporation. The detection reagents were prepared in a buffer that was composed, such that the enzymatic reaction was terminated due to chelating of Mg-ions and increased ionic strength, containing 50 mM Tris-HCl pH 7.5, 700 mM NaCl, 20 mM EDTA, and 0.01% (w/v) Tween-20. Importantly Eu-cryptate-coupled streptavidin had to be preincubated with a 100-fold molar excess of a random sequence oligonucleotide for 10 min at RT in the dark to block unspecific binding of single stranded RNA to the protein. Subsequently, the blocked streptavidin(-Eu) was mixed with the DNA-probes on ice and kept away from light until use. […]

mitochondrial RNA-polymerase (POLRMT), sequence (Q8BKF1 42-1207): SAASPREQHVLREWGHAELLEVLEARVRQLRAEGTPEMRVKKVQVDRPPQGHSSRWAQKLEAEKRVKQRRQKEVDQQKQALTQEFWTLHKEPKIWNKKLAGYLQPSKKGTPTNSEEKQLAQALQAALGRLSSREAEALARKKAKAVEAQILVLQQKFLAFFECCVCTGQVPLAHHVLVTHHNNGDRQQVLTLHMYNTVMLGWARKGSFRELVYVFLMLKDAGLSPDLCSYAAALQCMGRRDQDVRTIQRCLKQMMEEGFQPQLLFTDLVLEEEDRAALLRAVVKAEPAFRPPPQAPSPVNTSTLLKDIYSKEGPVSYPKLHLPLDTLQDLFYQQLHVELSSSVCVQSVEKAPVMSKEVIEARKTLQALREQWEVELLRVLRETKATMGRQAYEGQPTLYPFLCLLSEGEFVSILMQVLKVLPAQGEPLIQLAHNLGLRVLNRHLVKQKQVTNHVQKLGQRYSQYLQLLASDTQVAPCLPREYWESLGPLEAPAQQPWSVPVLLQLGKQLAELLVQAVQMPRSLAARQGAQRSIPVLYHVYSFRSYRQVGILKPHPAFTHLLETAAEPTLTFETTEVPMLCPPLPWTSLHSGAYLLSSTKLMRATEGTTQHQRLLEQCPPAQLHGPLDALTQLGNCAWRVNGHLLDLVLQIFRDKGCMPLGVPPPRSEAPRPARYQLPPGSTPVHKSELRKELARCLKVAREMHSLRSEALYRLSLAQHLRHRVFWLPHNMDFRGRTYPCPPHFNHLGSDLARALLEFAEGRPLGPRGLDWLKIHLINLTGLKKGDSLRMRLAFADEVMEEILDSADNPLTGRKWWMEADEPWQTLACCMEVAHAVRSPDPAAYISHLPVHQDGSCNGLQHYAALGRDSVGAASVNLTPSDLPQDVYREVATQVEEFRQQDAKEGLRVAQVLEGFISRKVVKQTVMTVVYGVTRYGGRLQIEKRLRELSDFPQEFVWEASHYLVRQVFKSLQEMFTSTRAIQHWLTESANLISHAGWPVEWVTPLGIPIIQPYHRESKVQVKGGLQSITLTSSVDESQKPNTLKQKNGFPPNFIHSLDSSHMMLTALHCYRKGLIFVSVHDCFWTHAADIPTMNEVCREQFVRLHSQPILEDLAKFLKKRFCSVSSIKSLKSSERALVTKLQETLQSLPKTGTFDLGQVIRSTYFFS

Q: CCOC(=O)[C@H]1CCCN(C(=O)C(C)Oc2ccc3c(-c4ccccc4)cc(=O)oc3c2)C1 (mixture of isomers) [Compound 64, ethyl rac-(3S)-1-[2-(2-oxo-4-phenyl-chromen-7-yl)oxypropanoyl]piperidine-3-carboxylate] was tested. Which IC50 did it give?
A: 1000 to 10000 nM

Q: With CC(Oc1ccc2c(-c3ccccc3)cc(=O)oc2c1)C(=O)N1CCC[C@H](C(=O)N(C)C)C1 (mixture of isomers) [Compound 68, rac-(3S)-N,N-dimethyl-1-[2-(2-oxo-4-phenyl-chromen-7-yl)oxpropanoyl]piperidine-3-carboxamide] as the compound, how does the IC50 read?
A: 1000 to 10000 nM

Q: With CCOC(=O)C(C)Oc1ccc2c(-c3ccc(Cl)cc3)cc(=O)oc2c1 (centres unmarked) [Compound 3, ethyl 2-[4-(4-chlorophenyl)-2-oxo-chromen-7-yl]oxypropanoate] as the compound, how does the IC50 read?
A: 100 to 1000 nM

Q: For CCOC(=O)C(C)Oc1ccc2c(-c3cccc(Cl)c3)cc(=O)oc2c1 (centres unmarked) [Compound 4, ethyl 2-[4-(3-chlorophenyl)-2-oxo-chromen-7-yl]oxypropanoate], which IC50 is on record?
A: 100 to 1000 nM

Q: How did the IC50 turn out when CC(Oc1ccc2c(-c3ccccc3)cc(=O)oc2c1)C(=O)Nc1ccc(CCCO)cc1 (centres unmarked) [Compound 5, N-[4-(3-hydroxypropyl)phenyl]-2-(2-oxo-4-phenyl-chromen-7-yl)oxy-propanamide] was run?
A: 100 to 1000 nM

Q: With CC(Oc1ccc2c(-c3ccccc3)cc(=O)oc2c1)C(=O)Nc1ccccn1 (centres unmarked) [Compound 6, 2-(2-oxo-4-phenyl-chromen-7-yl)oxy-N-(2-pyridyl)propanamide] as the compound, how does the IC50 read?
A: 100 to 1000 nM

Q: For CCOC(=O)C(C)Oc1ccc2c(-c3ccc(F)cc3)cc(=O)oc2c1 (centres unmarked) [Compound 8, ethyl 2-[4-(4-fluorophenyl)-2-oxo-chromen-7-yl]oxypropanoate], which IC50 is on record?
A: 100 to 1000 nM

Q: With CCOC(=O)C(C)Oc1ccc2c(-c3ccc(C)cc3)cc(=O)oc2c1 (centres unmarked) [Compound 9, ethyl 2-[2-oxo-4-(p-tolyl)chromen-7-yl]oxypropanoate] as the compound, how does the IC50 read?
A: 100 to 1000 nM

Q: Which IC50 does the source give for COC(=O)C1CCCN(C(=O)C(C)Oc2cc3oc(=O)cc(-c4ccccc4)c3cc2Cl)C1 (centres unmarked) [Compound 10, methyl 1-[2-(6-chloro-2-oxo-4-phenyl-chromen-7-yl)oxypropanoyl]piperidine-3-carboxylate] here?
A: 100 to 1000 nM

Q: With CC(Oc1cc2oc(=O)cc(-c3ccccc3)c2cc1Cl)C(=O)Nc1ccccn1 (centres unmarked) [Compound 11, 2-(6-chloro-2-oxo-4-phenyl-chromen-7-yl)oxy-N-(2-pyridyl)propanamide] as the compound, how does the IC50 read?
A: 100 to 1000 nM

Q: With CC(Oc1cc2oc(=O)cc(-c3ccccc3)c2cc1Cl)C(=O)N1CCCC(C(=O)O)C1 (centres unmarked) [Compound 13, 1-[2-(6-chloro-2-oxo-4-phenyl-chromen-7-yl)oxypropanoyl]piperidine-3-carboxylic acid] as the compound, how does the IC50 read?
A: 100 to 1000 nM

Q: CC(Oc1ccc2c(-c3ccccc3)cc(=O)oc2c1)C(=O)N1CCCC(C(=O)O)C1 (centres unmarked) [Compound 14, 1-[2-(2-oxo-4-phenyl-chromen-7-yl)oxypropanoyl]piperidine-3-carboxylic acid] was tested. Which IC50 did it give?
A: 100 to 1000 nM

Q: For CC(Oc1ccc2c(-c3ccccc3)cc(=O)oc2c1)C(=O)Nc1ccc(CCO)cc1 (centres unmarked) [Compound 16, N-[4-(2-hydroxyethyl)phenyl]-2-(2-oxo-4-phenyl-chromen-7-yl)oxy-propanamide], which IC50 is on record?
A: 100 to 1000 nM

Q: For CC(Oc1cc2oc(=O)cc(-c3ccccc3)c2cc1Cl)C(=O)Nc1ccc(CCO)cc1 (centres unmarked) [Compound 17, 2-(6-chloro-2-oxo-4-phenyl-chromen-7-yl)oxy-N-[4-(2-hydroxyethyl)phenyl]propanamide], which IC50 is on record?
A: 100 to 1000 nM

Q: CC(Oc1ccc2c(-c3ccccc3)cc(=O)oc2c1)C(=O)N(C)c1ccc(CCO)cc1 (centres unmarked) [Compound 18, N-[4-(2-hydroxyethyl)phenyl]-N-methyl-2-(2-oxo-4-phenyl-chromen-7-yl)oxy-propanamide] was tested. Which IC50 did it give?
A: 100 to 1000 nM

Q: Which IC50 does the source give for CC(Oc1ccc2c(-c3ccccc3)cc(=O)oc2c1)C(=O)N1CCCC(c2nn[nH]n2)C1 (centres unmarked) [Compound 20, 7-[1-methyl-2-oxo-2-[3-(2H-tetrazol-5-yl)-1-piperidyl]ethoxy]-4-phenyl-chromen-2-one] here?
A: < 20 nM

Q: For C[C@@H](Oc1ccc2c(-c3ccccc3)cc(=O)oc2c1)C(=O)N1CCC[C@H](C(=O)O)C1 [Compound 21, (3S)-1-[(2R)-2-(2-oxo-4-phenyl-chromen-7-yl)oxypropanoyl]piperidine-3-carboxylic acid], which IC50 is on record?
A: 100 to 1000 nM

Q: O=C(COc1ccc2c(-c3ccccc3)cc(=O)oc2c1)Nc1ccccn1 [Compound 22, 2-(2-oxo-4-phenyl-chromen-7-yl)oxy-N-(2-pyridyl)acetamide] was tested. Which IC50 did it give?
A: 100 to 1000 nM

Q: COC(=O)C1CCCN(C(=O)COc2ccc3c(-c4ccccc4)cc(=O)oc3c2)C1 (centres unmarked) [Compound 23, methyl 1-[2-(2-oxo-4-phenyl-chromen-7-yl)oxyacetyl]piperidine-3-carboxylate] was tested. Which IC50 did it give?
A: 1000 to 10000 nM

Q: How did the IC50 turn out when CC(Oc1ccc2c(-c3ccccc3)cc(=O)oc2c1)C(=O)Oc1ccccc1 (centres unmarked) [Compound 24, phenyl 2-(2-oxo-4-phenyl-chromen-7-yl)oxypropanoate] was run?
A: 1000 to 10000 nM

Q: For CC(Oc1ccc2c(-c3ccccc3)cc(=O)oc2c1)C(=O)Nc1ccccc1 (centres unmarked) [Compound 25, 2-(2-oxo-4-phenyl-chromen-7-yl)oxy-N-phenyl-propanamide], which IC50 is on record?
A: 100 to 1000 nM

Q: With CNC(=O)C(C)Oc1ccc2c(-c3ccccc3)cc(=O)oc2c1 (centres unmarked) [Compound 26, N-methyl-2-(2-oxo-4-phenyl-chromen-7-yl)oxy-propanamide] as the compound, how does the IC50 read?
A: 100 to 1000 nM

Q: Which IC50 does the source give for CC(Oc1cc2oc(=O)cc(-c3ccccc3)c2cc1Cl)C(=O)NCC(O)c1ccccc1 (centres unmarked) [Compound 27, 2-(6-chloro-2-oxo-4-phenyl-chromen-7-yl)oxy-N-(2-hydroxy-2-phenyl-ethyl)propanamide] here?
A: 1000 to 10000 nM

Q: Which IC50 does the source give for CC(Oc1cc2oc(=O)cc(-c3ccccc3)c2cc1Cl)C(=O)Nc1ccc(CCCO)cc1 (centres unmarked) [Compound 28, 2-(6-chloro-2-oxo-4-phenyl-chromen-7-yl)oxy-N-[4-(3-hydroxypropyl)phenyl]propanamide] here?
A: 100 to 1000 nM

Q: Which IC50 does the source give for CC(Oc1ccc2c(-c3ccccc3)cc(=O)oc2c1)C(=O)NCC(O)c1ccccc1 (centres unmarked) [Compound 29, N-(2-hydroxy-2-phenyl-ethyl)-2-(2-oxo-4-phenyl-chromen-7-yl)oxy-propanamide] here?
A: 1000 to 10000 nM

Q: CCOC(=O)[C@H]1CCCN(C(=O)[C@@H](C)Oc2ccc3c(-c4ccccc4)cc(=O)oc3c2)C1 [Compound 35, ethyl (3S)-1-[(2R)-2-(2-oxo-4-phenyl-chromen-7-yl)oxypropanoyl]piperidine-3-carboxylate] was tested. Which IC50 did it give?
A: 100 to 1000 nM

Q: CC(Oc1ccc2c(-c3ccccc3)cc(=O)oc2c1)C(=O)N1CCC[C@H](C(=O)O)C1 (stereo partly drawn) [Compound 36, (3S)-1-[2-(2-oxo-4-phenyl-chromen-7-yl)oxypropanoyl]piperidine-3-carboxylic acid] was tested. Which IC50 did it give?
A: 100 to 1000 nM

Q: CC(Oc1ccc2c(-c3ccccc3)cc(=O)oc2c1)C(=O)N1CCC[C@@H](C(=O)O)C1 (stereo partly drawn) [Compound 37, (3R)-1-[2-(2-oxo-4-phenyl-chromen-7-yl)oxypropanoyl]piperidine-3-carboxylic acid] was tested. Which IC50 did it give?
A: 1000 to 10000 nM

Q: For COC(=O)[C@@H]1CCCN(C(=O)C(C)Oc2ccc3c(-c4ccccc4)cc(=O)oc3c2)C1 (stereo partly drawn) [Compound 38, methyl (3R)-1-[2-(2-oxo-4-phenyl-chromen-7-yl)oxypropanoyl]piperidine-3-carboxylate], which IC50 is on record?
A: 1000 to 10000 nM

Q: How did the IC50 turn out when CC(Oc1ccc2c(-c3ccccc3)cc(=O)oc2c1)C(=O)N1CCCCC1 (centres unmarked) [Compound 39, 7-[1-methyl-2-oxo-2-(1-piperidyl)ethoxy]-4-phenyl-chromen-2-one] was run?
A: 100 to 1000 nM

Q: For CN(C(=O)COc1ccc2c(-c3ccccc3)cc(=O)oc2c1)c1ccc(CCO)cc1 [Compound 40, N-[4-(2-hydroxyethyl)phenyl]-N-methyl-2-(2-oxo-4-phenyl-chromen-7-yl)oxy-acetamide], which IC50 is on record?
A: 100 to 1000 nM

Q: For CCOC(=O)C(C)Oc1ccc2c(-c3ccc(Br)cc3)cc(=O)oc2c1 (centres unmarked) [Compound 41, ethyl 2-[4-(4-bromophenyl)-2-oxo-chromen-7-yl]oxypropanoate], which IC50 is on record?
A: 100 to 1000 nM

— patent US10703735B2, “4-phenyl-coumarin derivatives, processes for their preparation and uses thereof for the treatment of cancer” (Lead Discovery Center GmbH, priority 2018, dated 2020)
